# From patent US20240226076A1, “Inhibitors of Tryptases and Their Use in Treating Allergies” (The Board of Trustees of the Leland Stanford Junior …, priority 2021, published 2024)
# Columns and labels:
# Kallikrein-12 = target: T1, Kallikrein-12 (Homo sapiens, UniProt Q9UKR0); experiment: Protease activity array (Reaction Biology Corp), Kallikrein-12; format: biochemical; conditions: recombinant protease, 10-dose IC50, fluorescently labeled peptide substrate
# T1 construct: purchased Reaction Biology Corp
# T1 sequence (Q9UKR0 18-248): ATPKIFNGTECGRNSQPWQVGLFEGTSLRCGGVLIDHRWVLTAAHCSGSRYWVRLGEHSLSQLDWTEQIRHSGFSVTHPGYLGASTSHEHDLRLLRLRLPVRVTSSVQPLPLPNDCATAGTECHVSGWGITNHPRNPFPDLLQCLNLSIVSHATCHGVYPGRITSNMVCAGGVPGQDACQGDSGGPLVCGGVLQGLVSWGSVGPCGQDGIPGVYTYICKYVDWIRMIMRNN
# Method: (§1) Avoralstat can inhibit Tryptase-b2 and -g1 as well as it inhibits KLKB1 in vitro. Avoralstat was assessed for inhibition against a panel of recombinant proteases including 2 Tryptases (Tryptase-b2 and -g1) and KLKB1 by commercial services from Reaction Biology Corp. The Reaction Biology Corp profile tested in a 10-dose IC50, with a dose range from 38 pM to 10 μM, against 70 proteases in FIG. 1E.
# (§2) Protease activity array. […] The protease activities were monitored as a time-course measurement of the increase in fluorescence signal from fluorescently labeled peptide substrate, and initial linear portion of slope (signal/min) was analyzed.
# Tryptase-b2 = target: T2, Tryptase-b2 (Homo sapiens, UniProt P20231); experiment: Protease activity array (Reaction Biology Corp), Tryptase-b2; format: biochemical
# T2 construct: purchased Reaction Biology Corp
# Method: as §1, §2
# Tryptase-g1 = target: T3, Tryptase-g1 (Homo sapiens, UniProt Q9NRR2); experiment: Protease activity array (Reaction Biology Corp), Tryptase-g1; format: biochemical
# T3 construct: purchased Reaction Biology Corp
# Method: as §1, §2
# Kallikrein-14 = target: T4, Kallikrein-14 (Homo sapiens, UniProt Q9P0G3); experiment: Protease activity array (Reaction Biology Corp), Kallikrein-14; format: biochemical; conditions: recombinant protease, 10-dose IC50, fluorescently labeled peptide substrate
# T4 construct: purchased Reaction Biology Corp
# T4 sequence (Q9P0G3 25-251): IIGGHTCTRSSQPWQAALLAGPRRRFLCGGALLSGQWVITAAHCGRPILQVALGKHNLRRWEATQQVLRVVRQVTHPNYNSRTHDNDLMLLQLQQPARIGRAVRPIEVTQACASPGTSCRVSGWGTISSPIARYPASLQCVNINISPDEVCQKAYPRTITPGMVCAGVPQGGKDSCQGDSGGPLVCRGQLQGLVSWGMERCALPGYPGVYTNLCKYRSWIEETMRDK
# Method: as §1, §2
# KLKB1 = target: T5, KLKB1 (Homo sapiens, UniProt P03952); experiment: Protease activity array (Reaction Biology Corp), KLKB1; format: biochemical
# T5 construct: purchased Reaction Biology Corp
# Method: as §1, §2
# [1] = oral drug, phase III clinical trials for hereditary angioedema; cited from earlier work
# T3 sequence (Q9NRR2 20-321): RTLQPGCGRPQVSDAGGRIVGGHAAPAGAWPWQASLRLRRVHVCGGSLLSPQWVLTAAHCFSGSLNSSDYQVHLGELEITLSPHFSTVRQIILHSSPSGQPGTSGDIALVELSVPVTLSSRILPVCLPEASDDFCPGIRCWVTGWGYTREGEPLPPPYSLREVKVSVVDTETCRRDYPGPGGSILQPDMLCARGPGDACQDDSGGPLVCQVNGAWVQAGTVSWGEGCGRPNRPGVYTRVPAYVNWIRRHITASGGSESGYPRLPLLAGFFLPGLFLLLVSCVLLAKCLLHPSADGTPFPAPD
# T5 sequence (P03952 20-638): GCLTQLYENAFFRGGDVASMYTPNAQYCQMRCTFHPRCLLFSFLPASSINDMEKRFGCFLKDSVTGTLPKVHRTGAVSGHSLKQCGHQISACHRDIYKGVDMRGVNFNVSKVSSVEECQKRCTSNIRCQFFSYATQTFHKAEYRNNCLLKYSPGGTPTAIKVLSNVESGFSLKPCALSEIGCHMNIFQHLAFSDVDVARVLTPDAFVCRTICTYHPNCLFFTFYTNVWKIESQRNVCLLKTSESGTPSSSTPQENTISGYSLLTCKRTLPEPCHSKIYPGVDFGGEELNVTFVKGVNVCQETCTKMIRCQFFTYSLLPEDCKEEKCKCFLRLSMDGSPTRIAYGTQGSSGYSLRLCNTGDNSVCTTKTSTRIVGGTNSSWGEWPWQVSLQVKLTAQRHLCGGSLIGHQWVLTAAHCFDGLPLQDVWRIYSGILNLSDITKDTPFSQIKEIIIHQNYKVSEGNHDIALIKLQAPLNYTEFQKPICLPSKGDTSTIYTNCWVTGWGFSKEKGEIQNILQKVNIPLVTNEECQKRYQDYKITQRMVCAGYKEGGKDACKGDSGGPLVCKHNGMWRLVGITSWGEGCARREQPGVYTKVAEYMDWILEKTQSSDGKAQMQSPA
# T2 sequence (P20231 31-275): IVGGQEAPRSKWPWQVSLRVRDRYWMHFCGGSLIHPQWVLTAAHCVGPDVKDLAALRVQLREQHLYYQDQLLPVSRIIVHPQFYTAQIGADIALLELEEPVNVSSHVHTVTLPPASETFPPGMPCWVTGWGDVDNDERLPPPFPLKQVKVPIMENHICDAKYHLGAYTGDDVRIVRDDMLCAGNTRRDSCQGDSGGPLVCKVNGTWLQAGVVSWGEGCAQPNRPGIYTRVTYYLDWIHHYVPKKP
structure (smiles),measurement,setting,value
C=Cc1cc(C(=O)Nc2ccc(C(=N)N)cc2)c(-c2ccc(C(=O)NCC3CC3)nc2C(=O)O)cc1OC [Avoralstat],inhibition,Kallikrein-12,sub-nanomolar inhibition
same,IC50,Tryptase-b2,990 pM
same,IC50,Tryptase-g1,930 pM
same,inhibition,Kallikrein-14,sub-nanomolar inhibition
same,IC50,KLKB1,130 pM
same,clinical safety,[1],clinically proven to be safe
